Experimental data: patent US9693992B2 (MannKind Corporation, priority 2010, dated 2017)

System: XBP-1 splicing
Experiment: XBP-1 splicing inhibition in livers and kidneys of CB17 SCID mice after tunicamycin
Type: in vivo
Settings: 1 mg/kg IP, alone, relative to PBS treated mice
From the text: The preclinical validation strategy employs a set of animal models representing normal tissues under chemical stress and multiple myeloma xenographs. The normal animal model is employed as a surrogate model where dose-related on-target activity of compounds can be confirmed in tissues sensitive to standard UPR inducing agents such as tunicamycin (Wu et al., Dev Cell. 2007 September; 13(1d):351-64). […] Upon induction with tunicamycin, tissues induce active XBP-1 mRNA splicing, and this activity is suppressed by IRE-1α inhibitors. This on-target ER stress animal model is a useful screening and early pharmacokinetic tool.
CB17 SCID mice were treated with 1 mg/kg tunicamycin by intraperitoneal (IP) injection at time 0 (T=0). Two hours later, compound A formulated in 10% hydroxy beta propyl cyclo dextran HBPCD was administered by IP injection. Doses were 50 mg/kg, 25 mg/kg and 10 mg/kg (4 mice in each group). Mice were sacrificed two hours later (4 hours from T=0), and the designated organs were harvested (FIG. 3A).
RT-PCR analysis was performed using murine-specific XBP-1 primers from total RNA harvested from specified organs. […] Each lane represents an individual mouse where RNA was harvested and RT-PCR was performed. Method of RNA extraction and RT-PCR analysis is described in Volkmann et al., J. Biol. Chem. 286, 12743-55, 2011. […]

Substance: tunicamycin
- induction of XBP-1s: induces XBP-1 spliced
